Measurements taken from ChEMBL document CHEMBL1201862, “PubChem BioAssay data set” (2004).
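Where inhibition never reached the appropriate level, the endpoint shown equals the highest concentration tested. Otherwise, values were interpolated linearly from a five-concentration, 48-hour dose response in 96-well plates. GI50 marks 50% less growth.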 Calls of active or inactive are those of the source. No stated cut-off is given here; in the data, active = GI50 up to about 1.1 µM and inactive = higher.

Columns and labels:
Assay in all cases: growth of human tumour cells (NCI), 48 h
A549 = system: A549
CAKI-1 = system: CAKI-1
DMS-273 = system: DMS-273
HCC 2998 = system: HCC 2998
HL-60 = system: HL-60
HOP-18 = system: HOP-18
HOP-62 = system: HOP-62
HOP-92 = system: HOP-92
HT-29 = system: HT-29
LOX IMVI = system: LOX IMVI
MOLT-4 = system: MOLT-4
Malme-3M = system: Malme-3M
NCI-H226 = system: NCI-H226
NCI-H23 = system: NCI-H23
OVCAR-3 = system: OVCAR-3
OVCAR-8 = system: OVCAR-8
RPMI-8226 = system: RPMI-8226
SK-MEL-5 = system: SK-MEL-5
U-251 = system: U-251
UACC-257 = system: UACC-257

Row | Compound | GI50 (A549) | GI50 (CAKI-1) | GI50 (DMS-273) | GI50 (HCC 2998) | GI50 (HL-60) | GI50 (HOP-18) | GI50 (HOP-62) | GI50 (HOP-92) | GI50 (HT-29) | GI50 (LOX IMVI) | GI50 (MOLT-4) | GI50 (Malme-3M) | GI50 (NCI-H226) | GI50 (NCI-H23) | GI50 (OVCAR-3) | GI50 (OVCAR-8) | GI50 (RPMI-8226) | GI50 (SK-MEL-5) | GI50 (U-251) | GI50 (UACC-257)
1 | O=C(O)CCC(NC(=O)c1ccc(Nc2nc3ccc(C(F)(F)F)cc3nc2-c2ccccc2)cc1)C(=O)O (stereo unspecified) | > 100 µM (inactive) | > 57.8 µM (inactive) | > 100 µM (inactive) | > 100 µM (inactive) | > 100 µM (inactive) | 3.37 µM (inactive) | > 100 µM (inactive) | > 46.6 µM (inactive) | > 100 µM (inactive) | > 100 µM (inactive) | > 100 µM (inactive) | > 100 µM (inactive) | > 100 µM (inactive) | > 100 µM (inactive) | > 100 µM (inactive) | > 100 µM (inactive) | > 100 µM (inactive) | > 100 µM (inactive) | > 83 µM (inactive) | > 100 µM (inactive)
2 | CCC12CCC[C@@]13C=C[C@H](O3)C(C)(C)C2=O (stereo partly specified) | > 100 µM (inactive) | > 100 µM (inactive) | > 100 µM (inactive) | > 100 µM (inactive) | > 100 µM (inactive) | > 100 µM (inactive) | > 100 µM (inactive) |  | > 100 µM (inactive) | > 100 µM (inactive) | > 100 µM (inactive) | > 100 µM (inactive) | > 100 µM (inactive) | > 100 µM (inactive) | > 100 µM (inactive) | > 100 µM (inactive) | > 100 µM (inactive) | > 100 µM (inactive) | > 100 µM (inactive) | > 100 µM (inactive)
3 | CCN1CC2(CO)CCC(OC)C34C5CC6C(OC)CC(O)(C5C6OC)C(O)(C(OC)C23)C14 (stereo unspecified) | > 375 µM (inactive) | > 375 µM (inactive) | > 375 µM (inactive) | > 375 µM (inactive) | > 375 µM (inactive) | > 375 µM (inactive) | > 375 µM (inactive) | 168 µM (inactive) | > 375 µM (inactive) | > 375 µM (inactive) | > 375 µM (inactive) | > 375 µM (inactive) | > 375 µM (inactive) | > 375 µM (inactive) | > 174 µM (inactive) | > 375 µM (inactive) | > 375 µM (inactive) | > 211 µM (inactive) | > 305 µM (inactive) | > 375 µM (inactive)
4 | S=C1NN=C2C(=C3CCCC4C5CCCCC5N2C34)N1 (stereo unspecified) | > 100 µM (inactive) | > 100 µM (inactive) |  |  | > 100 µM (inactive) |  | > 100 µM (inactive) | > 100 µM (inactive) |  | 56.4 µM (inactive) | 38 µM (inactive) | > 100 µM (inactive) | 0.678 µM (active) | > 100 µM (inactive) | > 100 µM (inactive) | > 100 µM (inactive) | 28.4 µM (inactive) | 82.6 µM (inactive) |  | > 100 µM (inactive)
5 | Nc1nc(=O)n(C2OC(CO)C(O)C2O)cc1F (stereo unspecified) | 0.255 µM (active) | 1.65 µM (inactive) | 4.36 µM (inactive) | > 100 µM (inactive) | 0.293 µM (active) | 2.44 µM (inactive) | 0.228 µM (active) | 0.0755 µM (active) | 5.65 µM (inactive) | 0.297 µM (active) | < 0.0166 µM (active) |  | > 100 µM (inactive) | 0.191 µM (active) | > 100 µM (inactive) | 0.222 µM (active) | > 100 µM (inactive) |  | 3.72 µM (inactive) | 3.78 µM (inactive)
6 | CN(C)CCNCc1c2ccccc2c(CNCCN(C)C)c2ccccc12 | 23.1 µM (inactive) |  | 34 µM (inactive) | 10.7 µM (inactive) | 20.5 µM (inactive) | 44.4 µM (inactive) | 18 µM (inactive) | 10.4 µM (inactive) | 14 µM (inactive) | 18.1 µM (inactive) | 2.2 µM (inactive) | 18.4 µM (inactive) | 19.5 µM (inactive) | 36 µM (inactive) | 37.5 µM (inactive) | 31.6 µM (inactive) | 31 µM (inactive) | 12.8 µM (inactive) | 20.9 µM (inactive) | 18 µM (inactive)
7 | COc1ccc(C2C(C#N)=C(O)NC(O)=C2C#N)cc1OC | > 100 µM (inactive) | > 100 µM (inactive) | > 100 µM (inactive) | > 100 µM (inactive) |  | > 100 µM (inactive) | > 100 µM (inactive) | > 100 µM (inactive) | > 100 µM (inactive) |  | > 100 µM (inactive) | > 100 µM (inactive) |  |  | > 100 µM (inactive) | > 100 µM (inactive) | > 100 µM (inactive) | > 100 µM (inactive) | > 100 µM (inactive) | 
